The record followed here is patent US6576652B2, “Use of an angiotensin II receptor antagonist for the preparation of drugs to increase the survival rate of renal transplant patients” (Merck Sharp & Dohme (Italia) S.p.A., priority 1997, dated 2003).

For one test, the system named is conscious Dogs. The test is described as follows: Hypotensive effects before and after furosemide in conscious dogs. It counts as in vivo, dog. The settings on record: cumulative iv 0.3 to 3 mg/kg. The text has this:
The hypotensive effects of 2-butyl-4-chloro-1-[(2′-(1H-tetrazol-5-yl)biphenyl-4-yl)methyl]-5-hydroxymethylimidazole sodium salt were compared before and after furosemide administration to conscious Dogs.

In test [1] the test system is bilaterally nephrectomized Lewis rats transplanted with kidney from Fisher 344 donor rat. The experiment in a line: Chronic renal allograft failure rat model, 6 month follow-up. The settings on record: for FSGS % (range) / Animal survival / Proteinuria / SBP: end of 6 month follow-up; for Animal survival: allograft rats; for Proteinuria / SBP: mean ±SD.
Description: Transplanted rats received cyclosporine (5 mg/kg/day i.m.) for the first 10 days to prevent acute rejection, and doses of antihypertensive drugs were adjusted to maintain blood pressure within the normal range.
In test [2] the test system is awake rats made hypertensive by ligation of the left renal artery. The test is described as follows: Antihypertensive effects in renal hypertensive rats. The settings on record: Table 1. The format is in vivo, rat. The method, then:
This procedure increases blood pressure by increasing renin production with consequent elevation of All levels. Compounds are administered orally at 100 mg/kg and/or intravenously via a cannula in the jugular vein at 10 mg/kg. Arterial blood pressure is continuously measured directly through a carotid artery cannula and recorded using a pressure transducer and a polygraph. Blood pressure levels after treatment are compared to pretreatment levels to determine the antihypertensive effects of the compounds (See Table 1). Compounds listed in Table 2 were tested in the same manner as described for Table 1, except that in the test for anti hypertensive effects in renal hypertensive rats, the compounds were administered orally at 30 mg/kg and intravenously at 3 mg/kg.

On to `CCCCc1nc(Cl)c(CO)n1Cc1ccc(-c2ccccc2-c2nnn[nH]2)cc1.[Na]` [2-butyl-4-chloro-1-[(2′-(1H-tetrazol-5-yl)biphenyl-4-yl)methyl]-5-hydroxymethylimidazole sodium salt], for which the “Effect on blood pressure” value is listed as “caused a significant decrease” in the test with conscious Dogs (after furosemide 10 mg/kg im at 18 and 2 hours before); “did not lower blood pressure” in the test on conscious Dogs (normotensive conscious dogs, before furosemide, n=4). Further, the “Inhibition of pressor response to AII” value in the test with conscious Dogs (after furosemide 10 mg/kg im) is listed as “inhibited the pressor response to AII at the two higher doses”; in the test on conscious Dogs (before furosemide, 10 min post dose) it was “effective in inhibiting the pressor response to AII”.

On to `CCOC(=O)C1=C(C)NC(C)=C(C(=O)OCC)C1c1ccccc1/C=C/C(=O)OC(C)(C)C` [Lacidipine, reference compound], for which, in test [1], the “FSGS % (range)” value is listed as 15 (10-20) %, the Animal survival came out at 34%, the Proteinuria is recorded as 167 ± 26° mg/day and the SBP turned out to be 125 ± 7 mm HG.

Regarding `CCCCc1nc(Cl)c(CO)n1Cc1ccc(-c2ccccc2-c2nn[nH]n2)cc1` [Losartan, 2-n-butyl-4-chloro-5-hydroxymothyl-1-[(2′-(1H-tetrazol-5-yl)biphenil-4-yl)methyl]imidazole], the “Antihypertensive Effects in Renal Hypertensive Rats Intravenous Activity” value in test [2] (intravenous, 10 mg/kg) is reported as “+ (Significant decrease in blood pressure at 10, mg/kg or less)”. The “Antihypertensive Effects in Renal Hypertensive Rats Oral Activity” value in test [2] (oral, 100 mg/kg) is “+ (Significant decrease in blood pressure at 100 mg/kg or less)”. Also, the “Protection from chronic allograft injury and long-term animal survival” value in test [1] (at comparable level of SBP control) was “effectively protects animals from chronic allograft injury”. Also, in test [1], the “FSGS % (range)” value is 3 (0-10) %, the Animal survival turned out to be 100%, the Proteinuria was determined as 71 ± 46 mg/day and the SBP was 114 ± 12 mm HG.
